Like-named read-outs stand apart in the source and are kept apart here. Each block holds one compound with its values, some of them ahead of it.
How the values were obtained:
[1] = molecular target: T1, human peripheral type cannabinoid receptor (hCB2) (Homo sapiens, UniProt P34972); test: Binding assay (in vitro), [3H]Win55212-2 displacement, membrane fractions of human CB2-CHO; settings: for Ki: hCB2 expressed in CHO cells, [3H]Win55212-2 2 nM, 30° C. 90 minutes
T1 construct: expressed in transfected cells; host or cells: CHO cells
T1 sequence (P34972 whole entry): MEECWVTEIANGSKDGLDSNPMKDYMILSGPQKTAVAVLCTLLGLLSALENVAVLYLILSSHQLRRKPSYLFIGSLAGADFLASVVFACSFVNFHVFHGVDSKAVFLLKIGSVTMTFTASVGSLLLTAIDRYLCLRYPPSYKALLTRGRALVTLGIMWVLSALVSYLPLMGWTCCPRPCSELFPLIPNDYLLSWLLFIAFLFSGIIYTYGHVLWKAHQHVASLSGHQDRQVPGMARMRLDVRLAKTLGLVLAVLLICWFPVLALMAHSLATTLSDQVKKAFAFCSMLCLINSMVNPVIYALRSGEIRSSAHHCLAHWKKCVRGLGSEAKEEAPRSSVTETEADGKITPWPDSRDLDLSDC

[2] = molecular target: T2, human central type cannabinoid receptor (hCB1) (Homo sapiens, UniProt P21554); test: Binding assay (in vitro), [3H]Win55212-2 displacement, membrane fractions of human CB1-CHO; settings: hCB1 expressed in CHO cells, [3H]Win55212-2 2 nM, 30° C. 90 minutes
T2 construct: expressed in transfected cells; host or cells: CHO cells
T2 sequence (P21554 whole entry): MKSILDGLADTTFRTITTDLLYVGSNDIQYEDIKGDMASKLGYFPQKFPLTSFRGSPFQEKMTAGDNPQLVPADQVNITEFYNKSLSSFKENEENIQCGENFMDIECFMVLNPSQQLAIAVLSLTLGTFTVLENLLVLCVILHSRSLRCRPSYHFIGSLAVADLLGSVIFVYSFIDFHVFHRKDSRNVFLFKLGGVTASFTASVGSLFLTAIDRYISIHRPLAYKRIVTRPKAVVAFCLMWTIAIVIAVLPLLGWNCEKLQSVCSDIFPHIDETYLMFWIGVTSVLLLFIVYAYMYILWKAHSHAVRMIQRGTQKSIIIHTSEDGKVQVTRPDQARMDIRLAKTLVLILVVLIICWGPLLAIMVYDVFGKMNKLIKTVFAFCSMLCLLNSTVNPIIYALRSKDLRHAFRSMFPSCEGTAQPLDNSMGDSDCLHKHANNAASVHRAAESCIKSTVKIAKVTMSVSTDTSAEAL

[3] = Ki value Peripheral type receptor (S)
[4] = indicator of selectivity for peripheral type receptors
[5] = read-out: Ki value Central type receptor (C)
[6] = read-out: Ki value Peripheral type receptor (S)
[7] = Ki value Central type receptor (C)

Compound: CCCCCOc1cc2cc(C(=O)OC)c(=O)[nH]c2cc1OC [Example 1-2, 7-methoxy-2-oxo-6-pentyloxy-1,2-dihydroquinoline-3-carboxylic acid methyl ester]
Ki [1, 3]: 0.014 nM | C/S (Ki central type receptors / Ki peripheral type receptors) [1, 4]: 262202 | Ki [2, 5]: 3670 nM

Compound: CCCCCOc1cc2cc(C(=O)OC)c(=O)n(C)c2cc1OC [Example 1-4, 1-methyl-7-methoxy-2-oxo-6-pentyloxy-1,2-dihydroquinoline-3-carboxylic acid methyl ester]
Ki [1, 3]: 4.49 nM | C/S (Ki central type receptors / Ki peripheral type receptors) [1, 4]: 362 | Ki [2, 5]: 1630 nM

Ki [1, 6]: 8.9 nM | C/S (Ki central type receptors / Ki peripheral type receptors) [1, 4]: 487 | Ki [2, 5]: 4330 nM
Compound: CCCCCOc1c(OC)ccc2cc(C(=O)O)c(=O)[nH]c12 [Example 2-1, 7-methoxy-2-oxo-8-pentyloxy-1,2-dihydroquinoline-3-carboxylic acid]

Compound: CCCCOc1c(OC)ccc2cc(C(=O)O)c(=O)[nH]c12 [Example 2-2, 8-butoxy-7-methoxy-2-oxo-1,2-dihydroquinoline-3-carboxylic acid]
Ki [1, 6]: 0.77 nM | C/S (Ki central type receptors / Ki peripheral type receptors) [1, 4]: 42172 | Ki [2, 5]: 3250 nM

Ki [1, 6]: 0.032 nM | C/S (Ki central type receptors / Ki peripheral type receptors) [1, 4]: 28273 | Ki [2, 5]: 905 nM
Compound: CCCOc1c(OC)ccc2cc(C(=O)O)c(=O)[nH]c12 [Example 2-4, 7-methoxy-2-oxo-8-propoxy-1,2-dihydroquinoline-3-carboxylic acid]

Compound: CCCCCOc1cc2cc(C(=O)O)c(=O)[nH]c2cc1OC [Example 2-5, 7-methoxy-2-oxo-6-pentyloxy-1,2-dihydroquinoline-3-carboxylic acid]
Ki [1, 3]: 0.2 nM | Ki [2, 5]: 434 nM

Compound: CCCCCOc1c(OC)ccc2cc(C(=O)O)c(=O)n(C)c12 [Example 2-6, 1-methyl-7-methoxy-2-oxo-8-pentyloxy-1,2-dihydroquinoline-3-carboxylic acid]
Ki [1, 3]: 0.13 nM | C/S (Ki central type receptors / Ki peripheral type receptors) [1, 4]: 5923 | Ki [2, 5]: 770 nM

Compound: CCCCCOc1cc2cc(C(=O)O)c(=O)n(C)c2cc1OC [Example 2-7, 1-methyl-7-methoxy-2-oxo-6-pentyloxy-1,2-dihydroquinoline-3-carboxylic acid]
Ki [1, 3]: 0.42 nM | C/S (Ki central type receptors / Ki peripheral type receptors) [1, 4]: 908 | Ki [2, 5]: 381 nM

Compound: CCCCCOc1c(OC)ccc2cc(C(=O)NCCc3ccncc3)c(=O)[nH]c12 [Example 3-1, 7-methoxy-2-oxo-8-pentyloxy-1,2-dihydroquinoline-3-carboxylic acid (2-pyridine-4-ylethyl)amide]
C/S (Ki central type receptors / Ki peripheral type receptors) [1]: 372 | Ki [1, 3]: 0.13 ± 0.05 nM | Ki [2, 7]: 49 nM

Ki [2, 5]: 609 nM
Compound: CCOc1c(OC)ccc2cc(C(=O)NCCc3ccncc3)c(=O)[nH]c12 [Example 3-6, 8-ethoxy-7-methoxy-2-oxo-1,2-dihydroquinoline-3-carboxylic acid (2-pyridine-4-ylethyl)amide]

Compound: CCCCCOc1c(OC)ccc2cc(C(=O)NCCc3ccc(O)cc3)c(=O)[nH]c12 [Example 3-7, 7-methoxy-2-oxo-8-pentyloxy-1,2-dihydroquinoline-3-carboxylic acid [2-(4-hydroxyphenyl)ethyl]amide]
Ki [1, 3]: 0.48 nM | C/S (Ki central type receptors / Ki peripheral type receptors) [1, 4]: 150 | Ki [2, 7]: 72 nM

Compound: CCCCCOc1c(OC)ccc2cc(C(=O)NCCc3ccc(F)cc3)c(=O)[nH]c12 [Example 3-8, 7-methoxy-2-oxo-8-pentyloxy-1,2-dihydroquinoline-3-carboxylic acid [2-(4-fluorophenyl)ethyl]amide]
Ki [1, 3]: 0.019 nM | C/S (Ki central type receptors / Ki peripheral type receptors) [1, 4]: 4275 | Ki [2, 7]: 81 nM

Compound: CCCCOc1c(OC)ccc2cc(C(=O)NCCc3ccncc3)c(=O)[nH]c12 [Example 3-16, 8-butoxy-7-methoxy-2-oxo-1,2-dihydroquinoline-3-carboxylic acid (2-pyridine-4-ylethyl)amide]
Ki [1, 3]: 0.01 nM | C/S (Ki central type receptors / Ki peripheral type receptors) [1, 4]: 20805 | Ki [2, 5]: 208 nM

Compound: CCOc1c(OC)ccc2cc(C(=O)NCCc3ccc(F)cc3)c(=O)[nH]c12 [Example 3-18, 8-ethoxy-7-methoxy-2-oxo-1,2-dihydroquinoline-3-carboxylic acid [2-(4-fluorophenyl)ethyl]amide]
Ki [1, 3]: 7.1 nM | C/S (Ki central type receptors / Ki peripheral type receptors) [1, 4]: 247 | Ki [2, 5]: 1750 nM

Compound: CCCCCOc1c(OC)ccc2cc(C(=O)NCCc3ccccc3F)c(=O)[nH]c12 [Example 3-19, 7-methoxy-2-oxo-8-pentyloxy-1,2-dihydroquinoline-3-carboxylic acid [2-(2-fluorophenyl)ethyl]amide]
Ki [1, 3]: 0.18 nM | C/S (Ki central type receptors / Ki peripheral type receptors) [1, 4]: 272 | Ki [2, 7]: 49 nM

Compound: CCCCCOc1c(OC)ccc2cc(C(=O)NCCc3cccc(F)c3)c(=O)[nH]c12 [Example 3-20, 7-methoxy-2-oxo-8-pentyloxy-1,2-dihydroquinoline-3-carboxylic acid [2-(3-fluorophenyl)ethyl]amide]
C/S (Ki central type receptors / Ki peripheral type receptors) [1]: 191 | Ki [1, 3]: 0.41 nM | Ki [2, 7]: 78 nM

Compound: CCCCCOc1c(OC)ccc2cc(C(=O)NCCc3ccc(O)c(OC)c3)c(=O)[nH]c12 [Example 3-21, 7-methoxy-2-oxo-8-pentyloxy-1,2-dihydroquinoline-3-carboxylic acid [2-(4-hydroxy-3-methoxyphenyl)ethyl]amide]
Ki [1, 3]: 0.97 nM | C/S (Ki central type receptors / Ki peripheral type receptors) [1, 4]: 167 | Ki [2, 5]: 162 nM

Ki [1, 6]: 0.2 nM | C/S (Ki central type receptors / Ki peripheral type receptors) [1, 4]: 194 | Ki [2, 5]: 39 nM
Compound: CCCCCOc1c(OC)ccc2cc(C(=O)NCCc3ccccc3)c(=O)[nH]c12 [Example 3-23, 7-methoxy-2-oxo-8-pentyloxy-1,2-dihydroquinoline-3-carboxylic acid (2-phenylethyl)amide]

Compound: CCCCCOc1c(OC)ccc2cc(C(=O)NCc3ccc(F)cc3)c(=O)[nH]c12 [Example 3-25, 7-methoxy-2-oxo-8-pentyloxy-1,2-dihydroquinoline-3-carboxylic acid (4-fluorobenzyl)amide]
Ki [1, 3]: 1.29 nM | C/S (Ki central type receptors / Ki peripheral type receptors) [1, 4]: 344 | Ki [2, 5]: 444 nM

Ki [1, 6]: 0.16 nM | C/S (Ki central type receptors / Ki peripheral type receptors) [1, 4]: 995 | Ki [2, 5]: 159 nM
Compound: COc1ccc2cc(C(=O)NCCc3ccc(F)cc3)c(=O)[nH]c2c1OC [Example 3-31, 7,8-dimethoxy-2-oxo-1,2-dihydroquinoline-3-carboxylic acid [2-(4-fluorophenyl)ethyl]amide]

Compound: CCCCCOc1cc2cc(C(=O)NCCc3ccc(F)cc3)c(=O)[nH]c2cc1OC [Example 3-32, 7-methoxy-2-oxo-6-pentyloxy-1,2-dihydroquinoline-3-carboxylic acid [2-(4-fluorophenyl)ethyl]amide]
Ki [1, 3]: 0.036 nM | C/S (Ki central type receptors / Ki peripheral type receptors) [1, 4]: 66604 | Ki [2, 5]: 2400 nM

Compound: CCCCCOc1cc2cc(C(=O)NCc3ccc4c(c3)OCO4)c(=O)[nH]c2cc1OC [Example 3-33, 7-methoxy-2-oxo-6-pentyloxy-1,2-dihydroquinoline-3-carboxylic acid (3,4-methylenedioxybenzyl)amide]
Ki [1, 3]: 1.06 nM | C/S (Ki central type receptors / Ki peripheral type receptors) [1, 4]: 258 | Ki [2, 5]: 273 nM

Compound: CCCCCOc1cc2cc(C(=O)NCCN3CCOCC3)c(=O)[nH]c2cc1OC [Example 3-34, 7-methoxy-2-oxo-6-pentyloxy-1,2-dihydroquinoline-3-carboxylic acid (2-morpholinoethyl) amide]
Ki [1, 3]: 0.011 nM | C/S (Ki central type receptors / Ki peripheral type receptors) [1, 4]: 15672

Compound: CCOc1c(OC)ccc2cc(C(=O)NCc3ccc4c(c3)OCO4)c(=O)[nH]c12 [Example 3-35, 8-ethoxy-7-methoxy-2-oxo-1,2-dihydroquinoline-3-carboxylic acid (3,4-methylenedioxybenzyl) amide]
Ki [1, 3]: 0.053 nM | C/S (Ki central type receptors / Ki peripheral type receptors) [1, 4]: 7713 | Ki [2, 5]: 409 nM

Compound: CCCCCOc1c(OC)ccc2cc(C(=O)NCCc3ccc(F)cc3)c(=O)n(C)c12 [Example 3-36, 1-methyl-7-methoxy-2-oxo-8-pentyloxy-1,2-dihydroquinoline-3-carboxylic acid [2-(4-fluorophenyl)ethyl]amide]
Ki [1, 3]: 0.021 nM | C/S (Ki central type receptors / Ki peripheral type receptors) [1, 4]: 8695 | Ki [2, 5]: 183 nM

Compound: CCCCCOc1c(OC)ccc2cc(C(=O)NCCc3ccc(O)cc3)c(=O)n(C)c12 [Example 3-41, 1-methyl-7-methoxy-2-oxo-8-pentyloxy-1,2-dihydroquinoline-3-carboxylic acid [2-(4-hydroxyphenyl)ethyl]amide]
Ki [1, 3]: 0.35 nM | C/S (Ki central type receptors / Ki peripheral type receptors) [1, 4]: 176 | Ki [2, 7]: 62 nM

Compound: CCCCCOc1c(OC)ccc2cc(C(=O)NCc3ccc4c(c3)OCO4)c(=O)n(C)c12 [Example 3-42, 1-methyl-7-methoxy-2-oxo-8-pentyloxy-1,2-dihydroquinoline-3-carboxylic acid (3,4-methylenedioxybenzyl) amide]
Ki [1, 3]: 0.22 nM | C/S (Ki central type receptors / Ki peripheral type receptors) [1, 4]: 1430 | Ki [2, 5]: 315 nM

Compound: CCCCCOc1cc2cc(C(=O)NCCc3ccc(F)cc3)c(=O)n(C)c2cc1OC [Example 3-43, 1-methyl-7-methoxy-2-oxo-6-pentyloxy-1,2-dihydroquinoline-3-carboxylic acid [2-(4-fluorophenyl)ethyl]amide]
Ki [1, 3]: 0.043 nM | C/S (Ki central type receptors / Ki peripheral type receptors) [1, 4]: 20093 | Ki [2, 5]: 864 nM

Compound: CCCCCOc1cc2cc(C(=O)NCCN3CCOCC3)c(=O)n(C)c2cc1OC [Example 3-44, 1-methyl-7-methoxy-2-oxo-6-pentyloxy-1,2-dihydroquinoline-3-carboxylic acid (2-morpholinoethyl)amide]
Ki [1, 3]: 0.18 nM | C/S (Ki central type receptors / Ki peripheral type receptors) [1, 4]: 1075 | Ki [2, 5]: 193 nM

Reference: patent US6806276B2, “2-oxoquinoline compounds and pharmaceutical uses thereof” (Japan Tobacco Inc., priority 1999, dated 2004)
